These results are taken from a melting point compilation (Tetko et al.; mined from patent text by program, amines drawn as free bases though some values may be those of a salt).

Structures are written as SMILES.

`CCCOCCOC(=O)C1=C(C)NC(C)=C(P(=O)(OC(C)C)OC(C)C)C1c1cccc([N+](=O)[O-])c1` (stereo not drawn) displayed a melting point of 125 to 126 °C.

In the case of `O=C1c2ccccc2C(=O)c2c(Nc3ccc(O)cc3)ccc(Nc3ccc(O)cc3)c21`, the melting point fell in the range of 340 to 342 °C.

As to `Cc1ccc(C(NC(=O)[C@H](CCC(=O)O)NC(=O)c2cc3ccccc3[nH]2)c2ccc(C)cc2)cc1`, the melting point is above 260 °C.

`COC(=O)c1ccccc1S(=O)(=O)NC(=O)n1nc(SC)n(C)c1=O` had a melting point of 184 °C.

For the compound `CCNC(=O)/C=C/c1cccc(Br)c1`, the melting point was 89 to 90 °C.

For the compound `O=C1NCC(c2cccc(C(F)(F)F)c2)C1c1cn2c3c(cccc13)CCC2` (stereo not drawn), the melting point lay in the range of 82 to 85 °C.

In turn, `O=C(O)c1cn(C2CC2)c2cc(N3CCNC(c4cc5ccccc5o4)C3)c(F)cc2c1=O` (stereo not drawn) showed a melting point of 203 to 206 °C.

In turn, `COc1ccc(COc2c(C)c(C)c3c(c2C)C(c2ccc(N4CCN(C)CC4)cc2)C(C)(C)O3)cc1` (stereo not drawn) gave a melting point of 121 to 122 °C.

For `N=c1sc2cc(OC(F)(F)F)ccc2n1CCS`, the melting point came out at 110 °C.

`CCOC[PH](=O)SCCSCCNC(=O)CCCCCn1c(=O)n(C)c(=O)c2[nH]cnc21` (stereo not drawn) came in with a melting point of 103 to 106 °C.

`Clc1ccc2[nH]c3c(c2c1)CN(CCc1ccc2ccccc2n1)CC3` had a melting point of 187 to 190 °C.

For the compound `C[C@H](N)C(=O)NCc1cccc(Nc2n[nH]c3ncnc(Nc4cccc(Cl)c4)c23)c1`, the melting point fell in the range of 222 to 225 °C.

The compound `C=CCNC(=O)Nc1nc2nc(NCCCN3CCN(C)CC3)ncc2cc1-c1c(Cl)cccc1Cl` showed a melting point of 104 to 108 °C.

As for `Cc1nc2c(n1-c1ccccc1)C(=O)c1ccccc1C2=O`, the melting point was 242 °C.

Turning to `O=NCNC1=Nc2ccc(Cl)cc2N(c2ccccc2)C(=O)C1`, the melting point fell in the range of 121 to 124 °C.

`CCCc1nc2c(N)nc3cc(-c4ccccc4)ccc3c2n1CCCONC(=O)C(C)C` came in with a melting point of 169 to 171 °C.

Compound `Cc1c([N+](=O)[O-])ccc(Cl)c1C#N` showed a melting point of 87.5 to 89.5 °C.

`CCOc1nc(OCC)nc(-n2nc(SC)nc2N)n1` returned a melting point of 201 °C.

Turning to `CCc1cn(C(C)(C)C(=O)N(C)C)nc1-c1ccccc1`, the melting point was in the range of 108 to 111 °C.

Turning to `CCCCCCCCCCOc1cc(OCCCCCCCCCC)cc(N2CC(=O)OC(=O)C2)c1`, the melting point turned out to be 62 °C.

As to `CC1(C)CCC(C)(C)c2cc(OCc3ccc(C#N)cc3)ccc21`, the melting point lay within 149 to 150 °C.

Consider `Cc1cccc(-c2cc(O)c(Sc3ccccc3C(C)C)c(=O)o2)c1`, for which the melting point was in the range of 161 to 162 °C.

Compound `c1cnc(C2CNCC(c3ncccn3)N2)nc1` (stereo not drawn) had a melting point of 159 to 161 °C.

Consider `Cc1ccc(-c2cnc3c(N)ncnc3n2)cc1`, for which the melting point was found to be 315 °C.

The compound `CC12C=CCC1C1CC=C3CC(O)CCC3(CO)C1CC2` (stereo not drawn) gave a melting point of 169 to 171 °C.

Regarding `CCCCC(Cc1ccc(OCCNC(=O)c2ccc(N3CCCCC3)cc2)cc1)C(=O)O` (stereo not drawn), the melting point was in the range of 112 to 114 °C.

For `CC(=O)SC(CC(=O)c1ccc(C)cc1C)C(=O)O` (stereo not drawn), the melting point was 101 to 102 °C.

In turn, `COc1ccc2c(c1)OC(CNCCCOc1ccc3cccnc3c1)CO2` (stereo not drawn) returned a melting point of 135 to 142 °C.

The compound `O=C1CCC(C(=O)O)c2cc(Cl)c(C3CCCCC3)cc21` (stereo not drawn) yielded a melting point of 204 to 205 °C.

`CCN(c1c(-c2ccccc2)[nH]c(C)c1C(=O)c1ccccc1)S(=O)(=O)c1ccc(C)cc1` displayed a melting point of 224 to 225 °C.

In the case of `O=C(O)c1cc(-n2c(-c3ccc(Br)cc3)cc3c2CCCC3)ccc1O`, the melting point fell in the range of 231 to 232 °C.

`COc1cccc(CCNC(=O)N(C)O)c1OC` returned a melting point of 83 to 85 °C.

`CCCCCCCCCCCCCCCCCCNC(=O)c1cc(O)cc(O)c1` came in with a melting point of 114 to 117 °C.

The compound `COC(=O)C(C)(SC)c1ccc(N2C(=O)c3ccccc3C2=O)c(Cl)c1` (stereo not drawn) showed a melting point of 141 to 142 °C.

On to `CC1CCN(c2cc(F)cc(C(=O)Nc3ccc(OCCN4CCOCC4)c4ccccc34)c2)CC1`, for which the melting point lay in the range of 116 to 118 °C.

`CCc1c(-c2ccc(O)cc2)c2ccc3c(NC(C)=O)ccc1n32` had a melting point of 147 to 149 °C.

Compound `CC(=O)NC1(c2ccc(CN3CCN(c4ccccn4)CC3)cc2)CC1` gave a melting point of 145 to 147 °C.

`Cc1cccc2c1cc(C(=O)NCC1CCN(CC3(O)CCOCC3)CC1)c(=O)n2C(C)C` yielded a melting point of 222 °C.

`CNS(=O)(=O)c1ccc(-c2c(Cl)nc(C(F)(F)F)nc2-c2ccc(S(C)(=O)=O)cc2)cc1`: the melting point lay in the range of 226 to 230 °C.

As to `CCOC(=O)c1nc(CC)[nH]c1C(=O)OCC`, the melting point is 83 to 84 °C.

`Cc1c(C)c2c(c(C)c1N)CC(C)(CSCCC(=O)O)O2` (stereo not drawn) displayed a melting point of 139 to 140 °C.

In turn, `COc1ccc(S(=O)(=O)N(Cc2ccccc2)C(C)C(=O)NO)cc1` (stereo not drawn) registered a melting point of 127 to 129 °C.

Compound `CCc1ncc(CCCOc2c(C)cc(-c3noc(C(F)(F)F)n3)cc2C)s1` displayed a melting point of 57 to 59 °C.

`CN1C[C@H](c2cnccn2)OC1=O` came in with a melting point of 114 °C.

On to `COc1ccc(Cn2nc(-c3ccc(C(=O)N4Cc5cccnc5Nc5ccccc54)c(Cl)c3)nc2C)cc1`, for which the melting point was 218 to 221 °C.

`CCCN(CCc1ccccc1)CCc1cccc2[nH]c(=O)[nH]c12` had a melting point of 176 to 177 °C.

With `CC12CCC3c4ccc(O)cc4C(O)C(Sc4ccc(O)cc4)C3C1CCC2O` (stereo not drawn), the melting point was in the range of 220 to 225 °C.

`Cc1c(C)c(N(C)C(=O)CC(C)(C)C)c(C)c2c1OCC2c1ccc(C(C)C)cc1` (stereo not drawn) registered a melting point of 80 to 82 °C.

In the case of `CCCCCCCOc1ccc(C(=O)Nc2ccccc2OCc2nnn[nH]2)cc1`, the melting point is 148 to 150 °C.

Regarding `NCC1Cc2cc(-c3ccccc3)cc(-c3ccccc3F)c2O1` (stereo not drawn), the melting point was above 250 °C.

Compound `COC(=O)c1ccc(Cl)nc1OC` returned a melting point of 68 to 69 °C.

In turn, `COc1ccc2cnc(Nc3ccc(N4CCNCC4)cn3)nc2c1C1CCCC1` showed a melting point above 200 °C.

As for `CC(C)CNC1=NS(=O)(=O)c2ccc(Cl)cc2N1`, the melting point lay in the range of 298 to 301 °C.

Compound `Cc1c(F)c(=O)n(-c2cc(OC(C)C)c(Cl)cc2F)c(=O)n1C` came in with a melting point of 139 to 141 °C.

In turn, `Cc1nc2ccccc2n1Cc1c(F)cccc1F` had a melting point of 99 °C.

In the case of `COc1ccc(C2CCN(c3c(C)c(C)c4c(c3C)C(c3ccc(C(C)C)cc3)C(C)(C)O4)CC2)cc1OC` (stereo not drawn), the melting point is 129 to 132 °C.

Compound `CC(=O)N1c2ccc(N(C)C)cc2Sc2cc(N(C)C)ccc21` returned a melting point of 137 °C.

Consider `S=c1n(N=Cc2ccccc2)ccn1N=Cc1ccccc1`, for which the melting point lay in the range of 215 to 218 °C.

Turning to `O=C1C=C(CO)C(=O)N1`, the melting point lay in the range of 104 to 106 °C.

`ON=C1C[C@H]2CC=CC[C@H]2C1`: the melting point fell in the range of 100 to 103 °C.

Turning to `N#Cc1cc(NC(=O)c2csc3c2CCCC3)ccc1N1CCC(O)CC1`, the melting point fell in the range of 172 to 173 °C.

In the case of `CC(C)(C)c1cc(C(=NNc2ccccc2)c2ccccc2)cc(C(C)(C)C)c1O`, the melting point lay within 144 to 145 °C.

With `COC(=O)C1C(=O)CCC1CSc1ccccc1` (stereo not drawn), the melting point lay within 41 to 42 °C.

As usually defined, the melting point is the temperature, or range, at which the solid turns liquid.
